Results from publication PMC5218480 (PLoS ONE, 2017).

Test system: MV-4-11 cells
Assay: Gene expression microarray analysis (Affymetrix PrimeView) and GSEA
Format: cell-based, human
Parameters: RFU PODN (11730768_x_at) / Fold change /veh PODN (11730768_x_at) / RFU LINC00158 (11744669_a_at) / Fold change /veh LINC00158 (11744669_a_at) / RFU DUSP10 (11751237_a_at) / Fold change /veh DUSP10 (11751237_a_at) / RFU ID3 (11757404_x_at) / Fold change /veh ID3 (11757404_x_at) / RFU PLEKHG5 (11737974_s_at) / Fold change /veh PLEKHG5 (11737974_s_at) / RFU LRRC4B (11730491_at) / Fold change /veh LRRC4B (11730491_at) / RFU GIMAP4 (11747438_a_at) / Fold change /veh GIMAP4 (11747438_a_at) / RFU KRT8 (11758183_x_at) / Fold change /veh KRT8 (11758183_x_at) / RFU CNN1 (11734310_a_at) / Fold change /veh CNN1 (11734310_a_at) / RFU VPS37D (11726825_at) / Fold change /veh VPS37D (11726825_at) / RFU C10orf10 (11716522_x_at) / Fold change /veh C10orf10 (11716522_x_at) / RFU KIR2DL2 /// KIR2DL4 /// KIR2DL5A /// KIR2DL5B /// KIR2DS1 /// KIR2DS2 /// KIR2DS3 /// KIR2DS4 /// KIR3DL3 /// KIR3DL3 /// KIR3DS1 (11738374_at) / Fold change /veh KIR2DL2 /// KIR2DL4 /// KIR2DL5A /// KIR2DL5B /// KIR2DS1 /// KIR2DS2 /// KIR2DS3 /// KIR2DS4 /// KIR3DL3 /// KIR3DL3 /// KIR3DS1 (11738374_at) / RFU C1QL1 (11718748_at) / Fold change /veh C1QL1 (11718748_at) / RFU TMPRSS4 (11747572_a_at) / Fold change /veh TMPRSS4 (11747572_a_at) / RFU HAMP (11756126_x_at) / Fold change /veh HAMP (11756126_x_at) / RFU RNFT2 (11725882_a_at) / Fold change /veh RNFT2 (11725882_a_at) / RFU NR4A2 (11747474_a_at) / Fold change /veh NR4A2 (11747474_a_at) / RFU ABCC12 (11746883_a_at) / Fold change /veh ABCC12 (11746883_a_at) / RFU TMEM136 (11760407_x_at) / Fold change /veh TMEM136 (11760407_x_at) / RFU CLDN22 /// WWC2 (11732394_at) / Fold change /veh CLDN22 /// WWC2 (11732394_at) / RFU HLA-DPB1 (11760878_x_at) / Fold change /veh HLA-DPB1 (11760878_x_at) / RFU SPINT1 (11716480_a_at) / Fold change /veh SPINT1 (11716480_a_at) / RFU GAP43 (11754022_s_at) / Fold change /veh GAP43 (11754022_s_at) / RFU A4GNT (11735810_at) / Fold change /veh A4GNT (11735810_at) / RFU PRB3 (11715151_x_at) / Fold change /veh PRB3 (11715151_x_at) / RFU TUBB4B (11761932_at) / Fold change /veh TUBB4B (11761932_at) / RFU CAPN14 (11732068_a_at) / Fold change /veh CAPN14 (11732068_a_at) / RFU TMCC2 (11721928_a_at) / Fold change /veh TMCC2 (11721928_a_at) / RFU IRGQ (11745062_a_at) / Fold change /veh IRGQ (11745062_a_at) / RFU FAM174B (11720279_a_at) / Fold change /veh FAM174B (11720279_a_at) / RFU TMPRSS4 (11748680_a_at) / Fold change /veh TMPRSS4 (11748680_a_at) / RFU FAM212B (11763350_a_at) / Fold change /veh FAM212B (11763350_a_at) / RFU PLEKHG5 (11743358_a_at) / Fold change /veh PLEKHG5 (11743358_a_at) / RFU ZSCAN30 (11745921_a_at) / Fold change /veh ZSCAN30 (11745921_a_at) / RFU CMKLR1 (11741424_a_at) / Fold change /veh CMKLR1 (11741424_a_at) / RFU LOC101060620 /// MAPK8IP1 (11723275_at) / Fold change /veh LOC101060620 /// MAPK8IP1 (11723275_at) / RFU SPTSSB (11747773_x_at) / Fold change /veh SPTSSB (11747773_x_at) / RFU PRSS12 (11739890_at) / Fold change /veh PRSS12 (11739890_at) / RFU BIN1 (11741810_x_at) / Fold change /veh BIN1 (11741810_x_at) / RFU WNT11 (11732464_a_at) / Fold change /veh WNT11 (11732464_a_at) / RFU C10orf10 (11716521_a_at) / Fold change /veh C10orf10 (11716521_a_at) / RFU C5orf56 (11738089_at) / Fold change /veh C5orf56 (11738089_at) / RFU CYB561 (11721691_x_at) / Fold change /veh CYB561 (11721691_x_at) / RFU ANKRD19P (11752326_a_at) / Fold change /veh ANKRD19P (11752326_a_at) / RFU OR2T12 /// OR2T33 /// OR2T8 (11738714_s_at) / Fold change /veh OR2T12 /// OR2T33 /// OR2T8 (11738714_s_at) / RFU VCAN (11748164_a_at) / Fold change /veh VCAN (11748164_a_at) / RFU JSRP1 (11732532_at) / Fold change /veh JSRP1 (11732532_at) / RFU KRTAP10-11 (11738290_x_at) / Fold change /veh KRTAP10-11 (11738290_x_at) / RFU MYO3A (11730013_a_at) / Fold change /veh MYO3A (11730013_a_at) / RFU EBF3 (11725865_a_at) / Fold change /veh EBF3 (11725865_a_at) / RFU CAMK2N1 (11719241_x_at) / Fold change /veh CAMK2N1 (11719241_x_at) / RFU C5orf56 (11738088_a_at) / Fold change /veh C5orf56 (11738088_a_at) / RFU OLFML3 (11715873_a_at) / Fold change /veh OLFML3 (11715873_a_at) / RFU LOC100653217 /// NTM (11731650_a_at) / Fold change /veh LOC100653217 /// NTM (11731650_a_at) / RFU MAPK11 (11762145_a_at) / Fold change /veh MAPK11 (11762145_a_at) / RFU FIZ1 (11724087_x_at) / Fold change /veh FIZ1 (11724087_x_at) / RFU OASL (11726364_x_at) / Fold change /veh OASL (11726364_x_at) / RFU SOX15 (11748057_x_at) / Fold change /veh SOX15 (11748057_x_at) / RFU CD79A (11719716_a_at) / Fold change /veh CD79A (11719716_a_at) / RFU HIST1H1D (11736915_at) / Fold change /veh HIST1H1D (11736915_at) / RFU CASKIN2 (11723855_a_at) / Fold change /veh CASKIN2 (11723855_a_at) / RFU LOC730098 (11760151_x_at) / Fold change /veh LOC730098 (11760151_x_at) / RFU OR4N2 (11742367_at) / Fold change /veh OR4N2 (11742367_at) / RFU PRRT2 (11749266_a_at) / Fold change /veh PRRT2 (11749266_a_at) / RFU SNX32 (11753110_a_at) / Fold change /veh SNX32 (11753110_a_at) / RFU CDHR5 (11726645_a_at) / Fold change /veh CDHR5 (11726645_a_at) / RFU RCAN1 (11760418_a_at) / Fold change /veh RCAN1 (11760418_a_at) / RFU FAM167A (11723789_a_at) / Fold change /veh FAM167A (11723789_a_at) / RFU FAM26E (11764081_at) / Fold change /veh FAM26E (11764081_at) / RFU ISYNA1 (11749810_s_at) / Fold change /veh ISYNA1 (11749810_s_at) / RFU ACY1 (11761880_at) / Fold change /veh ACY1 (11761880_at) / RFU 11764098_at / Fold change /veh 11764098_at / RFU SAMD14 (11745864_x_at) / Fold change /veh SAMD14 (11745864_x_at) / RFU NPB (11741838_a_at) / Fold change /veh NPB (11741838_a_at) / RFU TMPRSS6 (11731388_a_at) / Fold change /veh TMPRSS6 (11731388_a_at) / RFU KRTAP10-2 (11738614_at) / Fold change /veh KRTAP10-2 (11738614_at) / RFU ARHGAP8 /// PRR5-ARHGAP8 (11727945_x_at) / Fold change /veh ARHGAP8 /// PRR5-ARHGAP8 (11727945_x_at) / RFU KRTAP5-7 /// NADSYN1 (11734609_at) / Fold change /veh KRTAP5-7 /// NADSYN1 (11734609_at) / RFU RASL12 (11751679_a_at) / Fold change /veh RASL12 (11751679_a_at) / RFU CDKN2B (11736163_a_at) / Fold change /veh CDKN2B (11736163_a_at) / RFU PRF1 (11729649_at) / Fold change /veh PRF1 (11729649_at) / RFU, ZNF638 /// ZNF638-IT1 / Fold change vs veh, ZNF638 /// ZNF638-IT1 / RFU, PANK3 / Fold change vs veh, PANK3 / RFU, SH3YL1 / Fold change vs veh, SH3YL1 / RFU, ZEB2 / Fold change vs veh, ZEB2 / RFU, NRIP1 / Fold change vs veh, NRIP1 / RFU, PTTG1IP / Fold change vs veh, PTTG1IP / RFU, CAPN2 / Fold change vs veh, CAPN2 / RFU, MED14 / Fold change vs veh, MED14 / RFU, SNORA58 / Fold change vs veh, SNORA58 / RFU, C1orf63 / Fold change vs veh, C1orf63 / RFU, LRRFIP1 / Fold change vs veh, LRRFIP1 / RFU, NDUFAF7 / Fold change vs veh, NDUFAF7 / RFU, SLC12A2 / Fold change vs veh, SLC12A2 / RFU, IBTK / Fold change vs veh, IBTK / RFU, ESF1 / Fold change vs veh, ESF1 / Fold change vs veh, TMEM50B / RFU, TAOK1 / Fold change vs veh, TAOK1 / RFU, ACBD3 / Fold change vs veh, ACBD3 / RFU, TMA16 / Fold change vs veh, TMA16 / RFU, RWDD3 / Fold change vs veh, RWDD3 / RFU, BCAT1 / Fold change vs veh, BCAT1 / RFU, EDEM3 / Fold change vs veh, EDEM3 / RFU, TMEM33 / Fold change vs veh, TMEM33 / RFU, WDR75 / Fold change vs veh, WDR75 / RFU, AHCTF1 / Fold change vs veh, AHCTF1 / RFU, TFRC / Fold change vs veh, TFRC / RFU, ZDHHC17 / Fold change vs veh, ZDHHC17 / RFU, NOM1 / Fold change vs veh, NOM1 / RFU, ARL8B / Fold change vs veh, ARL8B / RFU, ZBTB11 / Fold change vs veh, ZBTB11 / RFU, TAMM41 / Fold change vs veh, TAMM41 / RFU, KIAA1704 /// LOC100996395 / Fold change vs veh, KIAA1704 /// LOC100996395 / RFU, ING1 / Fold change vs veh, ING1 / RFU, TRMT61B / Fold change vs veh, TRMT61B / RFU, FUBP3 / Fold change vs veh, FUBP3 / RFU, TP53 / Fold change vs veh, TP53 / RFU, TNKS2 / Fold change vs veh, TNKS2 / RFU, ZFP14 / Fold change vs veh, ZFP14 / RFU, ACTR2 / Fold change vs veh, ACTR2 / RFU, PPP3R1 / Fold change vs veh, PPP3R1 / RFU, PIK3R1 / Fold change vs veh, PIK3R1 / RFU, HNRNPA1 / Fold change vs veh, HNRNPA1 / RFU, RNF170 / Fold change vs veh, RNF170 / RFU, ZNF28 / Fold change vs veh, ZNF28 / RFU, RNGTT / Fold change vs veh, RNGTT / RFU, OGT / Fold change vs veh, OGT / RFU, BRD1 / Fold change vs veh, BRD1 / RFU, MARS / Fold change vs veh, MARS / RFU, ZNF655 / Fold change vs veh, ZNF655 / RFU, FAHD1 / Fold change vs veh, FAHD1 / RFU, BDP1 / Fold change vs veh, BDP1 / RFU, LRRCC1 / Fold change vs veh, LRRCC1 / RFU, ARID1A / Fold change vs veh, ARID1A / RFU, ZNF146 / Fold change vs veh, ZNF146 / RFU, ZNF330 / Fold change vs veh, ZNF330 / RFU, GPN3 / Fold change vs veh, GPN3 / RFU, C9orf123 / Fold change vs veh, C9orf123 / RFU, N4BP2L2 / Fold change vs veh, N4BP2L2 / RFU, ARFIP1 / Fold change vs veh, ARFIP1 / RFU, FAM179B / Fold change vs veh, FAM179B / RFU, BCL10 / Fold change vs veh, BCL10 / RFU, UHRF1BP1L / Fold change vs veh, UHRF1BP1L / RFU, BET1 / Fold change vs veh, BET1 / RFU, CNOT2 / Fold change vs veh, CNOT2 / RFU, ZNF268 / Fold change vs veh, ZNF268 / Fold change vs veh, ZNF507 / RFU, DGCR2 / Fold change vs veh, DGCR2 / RFU, WDSUB1 / Fold change vs veh, WDSUB1 / Fold change vs veh, HSP90B1 /// MIR3652 / RFU, ADSS / Fold change vs veh, ADSS / RFU, GK / Fold change vs veh, GK / RFU, ZNF148 / Fold change vs veh, ZNF148 / RFU, TAF9 / Fold change vs veh, TAF9 / RFU, SLC1A5 / Fold change vs veh, SLC1A5 / RFU, SLMO2 / Fold change vs veh, SLMO2 / RFU, ABCC4 / Fold change vs veh, ABCC4 / RFU, LOC101060439 /// RAP1B / Fold change vs veh, LOC101060439 /// RAP1B / RFU, RFX7 / Fold change vs veh, RFX7 / RFU, GTPBP10 / Fold change vs veh, GTPBP10 / RFU, CNEP1R1 / Fold change vs veh, CNEP1R1 / RFU, BIVM-ERCC5 /// ERCC5 / Fold change vs veh, BIVM-ERCC5 /// ERCC5 / RFU, ILF3 / Fold change vs veh, ILF3 / RFU 11762660_at / Fold change /veh 11762660_at / RFU VCAN (11757783_s_at) / Fold change /veh VCAN (11757783_s_at) / RFU DDX43 (11728927_at) / Fold change /veh DDX43 (11728927_at) / RFU KRT8 (11758188_x_at) / Fold change /veh KRT8 (11758188_x_at) / RFU NKD1 (11759106_at) / Fold change /veh NKD1 (11759106_at) / RFU SRD5A1 (11742802_a_at) / Fold change /veh SRD5A1 (11742802_a_at) / RFU TPSAB1 /// TPSB2 (11721975_s_at) / Fold change /veh TPSAB1 /// TPSB2 (11721975_s_at) / RFU GSTM3 (11746129_a_at) / Fold change /veh GSTM3 (11746129_a_at) / RFU IL23R (11737362_x_at) / Fold change /veh IL23R (11737362_x_at) / RFU TMEM51 (11727254_a_at) / Fold change /veh TMEM51 (11727254_a_at) / RFU PIWIL2 (11732686_x_at) / Fold change /veh PIWIL2 (11732686_x_at) / RFU ORM1 (11744905_x_at) / Fold change /veh ORM1 (11744905_x_at) / RFU CCDC152 (11743942_at) / Fold change /veh CCDC152 (11743942_at) / RFU ECM1 (11717891_a_at) / Fold change /veh ECM1 (11717891_a_at) / RFU IL23R (11748794_a_at) / Fold change /veh IL23R (11748794_a_at) / RFU TNFAIP8L3 (11732012_x_at) / Fold change /veh TNFAIP8L3 (11732012_x_at) / RFU MBOAT4 (11741988_at) / Fold change /veh MBOAT4 (11741988_at) / RFU 11764193_at / Fold change /veh 11764193_at / RFU TMEM53 (11763286_at) / Fold change /veh TMEM53 (11763286_at) / RFU MAGEB2 (11727129_at) / Fold change /veh MAGEB2 (11727129_at) / RFU TMEM200A (11744735_a_at) / Fold change /veh TMEM200A (11744735_a_at) / RFU CCDC152 (11751479_a_at) / Fold change /veh CCDC152 (11751479_a_at) / RFU FAM211A (11726209_a_at) / Fold change /veh FAM211A (11726209_a_at) / RFU RGS16 (11746705_a_at) / Fold change /veh RGS16 (11746705_a_at) / RFU VCAN (11755009_s_at) / Fold change /veh VCAN (11755009_s_at) / RFU RHOB (11743442_s_at) / Fold change /veh RHOB (11743442_s_at) / RFU RGS16 (11720943_a_at) / Fold change /veh RGS16 (11720943_a_at) / RFU RGS16 (11720944_at) / Fold change /veh RGS16 (11720944_at) / RFU, VPS4B / Fold change vs veh, VPS4B / RFU, CREB1 / Fold change vs veh, CREB1 / RFU, DNAJC13 / Fold change vs veh, DNAJC13 / RFU, GNAQ / Fold change vs veh, GNAQ / RFU, CDK5R1 / Fold change vs veh, CDK5R1 / RFU, ZRANB3 / Fold change vs veh, ZRANB3 / RFU, CUL4A / Fold change vs veh, CUL4A / RFU, CCNY / Fold change vs veh, CCNY / RFU, UFL1 / Fold change vs veh, UFL1 / RFU, COG3 / Fold change vs veh, COG3 / RFU, DIAPH2 / Fold change vs veh, DIAPH2 / RFU, SKA2 / Fold change vs veh, SKA2 / RFU, AFF3 / Fold change vs veh, AFF3 / RFU, LMF1 / Fold change vs veh, LMF1 / RFU, IPO11 / Fold change vs veh, IPO11 / RFU, DFFB / Fold change vs veh, DFFB / RFU, FOXP1 / Fold change vs veh, FOXP1 / RFU, CARD8 / Fold change vs veh, CARD8 / RFU, STRN3 / Fold change vs veh, STRN3 / RFU, ADK / Fold change vs veh, ADK / RFU, RASSF2 / Fold change vs veh, RASSF2 / RFU, WIPF1 / Fold change vs veh, WIPF1 / RFU, LARP1B / Fold change vs veh, LARP1B / RFU, RASA1 / Fold change vs veh, RASA1 / RFU, RB1 / Fold change vs veh, RB1 / RFU, PPFIA1 / Fold change vs veh, PPFIA1 / RFU, MAT2A / Fold change vs veh, MAT2A / RFU, CCT5 / Fold change vs veh, CCT5 / RFU, WDR92 / Fold change vs veh, WDR92 / RFU, CUX1 / Fold change vs veh, CUX1 / RFU, TTC7A / Fold change vs veh, TTC7A / RFU, TMEM135 / Fold change vs veh, TMEM135 / RFU, DEPTOR / Fold change vs veh, DEPTOR / RFU, CPM / Fold change vs veh, CPM / RFU, DNAJB6 / Fold change vs veh, DNAJB6 / RFU, CACNA2D3 / Fold change vs veh, CACNA2D3 / RFU, DTX4 / Fold change vs veh, DTX4 / RFU, TFCP2 / Fold change vs veh, TFCP2 / RFU, GMCL1 /// GMCL1P1 / Fold change vs veh, GMCL1 /// GMCL1P1 / RFU, AEBP2 / Fold change vs veh, AEBP2 / RFU, SNHG1 /// SNORD22 /// SNORD25 /// SNORD26 /// SNORD27 /// SNORD28 /// SNORD29 /// SNORD31 / Fold change vs veh, SNHG1 /// SNORD22 /// SNORD25 /// SNORD26 /// SNORD27 /// SNORD28 /// SNORD29 /// SNORD31 / Fold change (Aza/veh), C12orf56 (ProbeSet 11735607_a_at) / Fold change (ACY-1035/veh), C12orf56 (ProbeSet 11735607_a_at) / Fold change (Aza/veh), FGFR1OP (ProbeSet 11751329_s_at) / Fold change (ACY-1035/veh), FGFR1OP (ProbeSet 11751329_s_at) / Fold change (Aza/veh), VPS36 (ProbeSet 11739960_a_at) / Fold change (ACY-1035/veh), VPS36 (ProbeSet 11739960_a_at) / RFU SYPL1 (11715823_x_at) / Fold change /veh SYPL1 (11715823_x_at) / RFU IGFBP7 (11715501_s_at) / Fold change /veh IGFBP7 (11715501_s_at) / RFU REEP3 (11722064_at) / Fold change /veh REEP3 (11722064_at) / RFU IGLL1 (11728026_x_at) / Fold change /veh IGLL1 (11728026_x_at): dose or concentration left out as unconfirmed
Conditions: ProbeSet 11753616_s_at; LIST B

Nc1ccc(-c2cccs2)cc1NC(=O)c1ccc2c(c1)cc(C1CC1)n2CCN1CCOCC1 [ACY-1035]
Fold change vs veh, ARL8B: 0.90
